Laboratory results taken from patent US20140303152A1, “BENZOTHIAZINETHIONE DERIVATIVES AND PREPARATION METHODS AND USES THEREOF” (SICHUAN UNIVERSITY, priority 2011, published 2014).
Converted amounts (≈) assume the structure as drawn. “And” between values parts separate entries of the source, which are not always exact repeats. Identical values can stand only once. Like-named read-outs stand apart in the source and are kept apart here.

Tests used:
[1] = test system: mycobacterium tuberculosis H37Rv; assay: In vitro inhibition test on Mycobacterium tuberculosis (H37Rv); assay type: cell-based; settings: for MIC90 / MIC99: Mycobacterium tuberculosis; for MIC99: 264 h; for inhibitory effects on mycobacterium tuberculosis (H37Rv): result in words
293 cells = assay: Cytotoxicity test (MTT method); assay type: cell-based; settings: Homo sapiens
[2] = test system: Mycobacterium tuberculosis (H37Ra); assay: In vitro inhibition test on Mycobacterium tuberculosis (H37Ra); assay type: cell-based
[3] = Acute toxicity test of compound If, blood biochemical detection; assay type: in vivo; set-up: Blood urea nitrogen / Total cholesterol / Creatine kinase / Creatinine / Blood glucose / Triglyceride / Total bilirubin / Alanine aminotransferase / Aspartate aminotransferase: unit not given here
Protocol: • 1. Experimental method, 1) If, intraperitoneal suspension, at dose of 2.5 g/kg; 2) adjuvant: 1% sodium carboxymethylcellulose (CMC-Na), 1% tween-80; 3) 10 BABL/C male and female mice, 6-8 weeks old, and weight of 20±2 g. The 10 mice were randomly divided into 2 groups, 5 mice for each group, and a solvent control group is set. Single intraperitoneal injection of 2.5 g/kg was given to the (1) drug group and (2) solvent control group within 24 h; physical signs, behavioral activities, glandular secretion, breath, stool, genitals, death and other poisoning manifestations of the mice were constantly observed every 4 h after administration, and the mice were killed after observation for 24 h, 5) blood was taken from eyeballs, and then the mice were killed, 800 μl whole blood was taken, centrifuged at 1300 r/min for 15 min, and 200 μl supernatant serum was taken for blood biochemical detection, including the following evaluation indicators: aspartate aminotransferase (AST), alanine aminotransferase (ALT), creatine kinase (CK), alkaline phosphatase (ALP), blood urea nitrogen (BUN), total protein (TP), albumin (Alb), blood glucose (GLU), total bilirubin (T-BIL), creatinine (Crea), total cholesterol (Chol) and triglyceride (TG), with 12 items in total. • 2.

[4] = test system: Bacillus Calmette Guerin (BCG); assay type: in vivo, BABL/C mice; settings: for Colony count results after treatment for 28 days (spleens and lungs): BCG-infected mice, FIG. 1; for Lung pathological examination, anti-BCG infection treatment effects: HE staining, FIG. 2
[5] = H37Rv, generally observed 11 days after inoculation, read-out: MIC99
[6] = H37Rv, generally observed 5-7 days after inoculation, read-out: MIC90
[7] = HEK293, 293 cells, MTT, 48 h, read-out: IC50
[8] = serum of individual mice 6-10, If 2.5 g/kg i.p., 24 h
[9] = high dose group, 75 mg/kg i.p. once every day
[10] = low dose group, 25 mg/kg i.p. once every day

Structure (SMILES)	MIC90 ([1]; H37RV) [µg/mL]	MIC99 ([1]; H37RV) [µg/mL]	IC50 (293 cells; HEK293, 48 h) [µM]	MIC99 [1, 5] [µg/mL]	MIC90 [1, 6] [µg/mL]	IC50 (293 cells; [7]) [µM]	IC90 [2] [µM]	inhibitory effects on mycobacterium tuberculosis (H37Rv) [1]	further results
CNc1nc(=S)c2cc([N+](=O)[O-])cc([N+](=O)[O-])c2s1 [Id, 2-(methylamino)-6,8-dinitro-4H-benzo[e][1,3]thiazine-4-thione]	2 (≈ 6.7 µM)	4 (≈ 13.4 µM)	> 500	–	–	–	–	–	–
Fc1cc2c(=S)nc(Nc3ccc(Br)cn3)sc2c(F)c1F [Ia, 2-(5-bromopyridine-2-amino)-6,7,8-trifluoro-4H-benzo[e][1,3]thiazine-4-thione]	–	–	–	16 (≈ 39.6 µM)	8 (≈ 19.8 µM)	> 500	–	–	–
O=[N+]([O-])c1cc(C(F)(F)F)cc2c(=S)nc(N3CCOCC3)sc12 [Ih, 2-morpholinyl-8-nitro-6-(trifluoromethyl)-4H-benzo[e][1,3]thiazine-4-thione]	–	–	–	0.0312 (≈ 0.0828 µM)	0.0312 (≈ 0.0828 µM)	> 500	0.8	equivalent to or even better than those of isoniazide	–
O=[N+]([O-])c1cc(C(F)(F)F)cc2c(=S)nc(N3CCC4(CC3)OCCO4)sc12 [Compound If, 8-nitro-2-(1,4-dio-8-aza[4.5]dec-8-yl)-6-(trifluoromethyl)-4H-benzo[e][1,3]thiazine-4-thione]	–	–	–	0.0312 (≈ 0.0721 µM)	0.0312 (≈ 0.0721 µM)	> 500	0.1	equivalent to or even better than those of isoniazide	acute toxicity ([3]; 2.5 g/kg single intraperitoneal injection, mice, observation 24 h): no obvious acute toxicity; Alanine aminotransferase [3, 8]: 10 and 16 (2×) and 12 and 11; Albumin [3, 8]: 31.5 and 34.0 and 33.1 and 33.4 and 32.2; Alkaline phosphatase [3, 8]: 166 and 134 and 156 and 175 and 165; Aspartate aminotransferase [3, 8]: 145 and 148 and 149 and 156 and 169; Blood glucose [3, 8]: 6.3 and 4.3 and 4.9 and 4.5 and 5.1; Blood urea nitrogen [3, 8]: 6.7 and 5.5 and 6.3 and 8.9 and 7.9; Creatine kinase [3, 8]: 67 and 54 and 65 and 66 and 74; Creatinine [3, 8]: −12 (2×) and −6 and −15 and −4; Total bilirubin [3, 8]: −0.6 (2×) and −0.5 and −1.2 and −0.4; Total cholesterol [3, 8]: 3.35 and 3.21 and 3.34 and 3.53 and 3.14; Total protein [3, 8]: 70.1 and 65.6 and 66.7 and 73.8 and 65.7; Triglyceride [3, 8]: 2.10 and 1.80 and 2.53 and 2.17 and 2.24; Colony count results after treatment for 28 days (spleens and lungs) [4, 9]: slightly inferior to those of isoniazide, but obviously superior to those of the model group; Lung pathological examination, anti-BCG infection treatment effects [4, 9]: equivalent to those of the isoniazide (positive) control group; Colony count results after treatment for 28 days (spleens and lungs) [4, 10]: inhibitory effects on BCG growth of mouse spleens and lungs; Lung pathological examination, anti-BCG infection treatment effects [4, 10]: obviously superior to those of the solvent group, but inferior to the isoniazide (positive) control group and the If high dose group
O=[N+]([O-])c1cc([N+](=O)[O-])c2sc(N3CCOCC3)nc(=S)c2c1 [Ig, 2-morpholinyl-6,8-dinitro-4H-benzo[e][1,3]thiazine-4-thione]	0.0625 (≈ 0.176 µM)	0.125 (≈ 0.353 µM)	> 500	–	–	–	0.8	equivalent to or even better than those of isoniazide	–
NNC(=O)c1ccncc1 [Isoniazide, reference compound]	–	–	–	0.0625 (≈ 0.456 µM)	0.0625 (≈ 0.456 µM)	–	0.8	–	–
O=[N+]([O-])c1cc([N+](=O)[O-])c2sc(Nc3ccc(C(F)(F)F)cc3)nc(=S)c2c1 [Ib, 6,8-dinitro-2-(4-(trifluoromethyl)anilino)-4H-benzo[e][1,3]thiazine-4-thione]	4 (≈ 9.34 µM)	16 (≈ 37.4 µM)	> 500	–	–	–	–	–	–
CCNc1nc(=S)c2cc([N+](=O)[O-])cc([N+](=O)[O-])c2s1 [Ic, 2-(ethylamino)-6,8-dinitro-4H-benzo[e][1,3]thiazine-4-thione]	2 (≈ 6.4 µM)	8 (≈ 25.6 µM)	> 500	–	–	–	–	–	–
O=[N+]([O-])c1cc([N+](=O)[O-])c2sc(N3CCCCC3)nc(=S)c2c1 [Ie, 6,8-dinitro-2-(piperidine-1-alkyl)-4H-benzo[e][1,3]thiazine-4-thione]	1 (≈ 2.84 µM)	4 (≈ 11.4 µM)	> 500	–	–	–	–	–	–
